Patent US20240158446A1, “CYCLIC COMPOUND HAVING SELECTIVE INHIBITORY ACTION ON KRAS OVER HRAS AND NRAS” (CHUGAI SEIYAKU KABUSHIKI KAISHA, priority 2021, published 2024)

Columns and labels:
[1] = molecular target: GDP-bound NRAS wild-type protein (Homo sapiens, UniProt P01111); experiment: Binding to NRAS by surface plasmon resonance (SPR), Single Cycle Kinetics; settings: SPR, GDP-bound NRAS wild-type protein vs GDP-bound KRAS wild-type protein
[2] = molecular target: GDP-bound KRAS wild-type protein (Homo sapiens, UniProt P01116); experiment: Binding to KRAS by surface plasmon resonance (SPR), Single Cycle Kinetics; settings: SPR, Single Cycle Kinetics, GDP-bound KRAS wild-type protein; read-out: KRAS KD
[3] = molecular target: GDP-bound HRAS wild-type protein (Homo sapiens, UniProt P01112); experiment: Binding to HRAS by surface plasmon resonance (SPR), Single Cycle Kinetics; settings: SPR, GDP-bound HRAS wild-type protein vs GDP-bound KRAS wild-type protein
Sequence of GDP-bound HRAS wild-type protein (P01112 whole entry): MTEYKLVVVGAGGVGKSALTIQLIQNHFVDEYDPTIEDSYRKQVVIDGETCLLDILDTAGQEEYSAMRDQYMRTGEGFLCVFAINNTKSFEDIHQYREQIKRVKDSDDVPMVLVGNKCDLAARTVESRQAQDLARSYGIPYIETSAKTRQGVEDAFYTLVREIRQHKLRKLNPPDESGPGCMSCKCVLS

Sequence of GDP-bound NRAS wild-type protein (P01111 whole entry): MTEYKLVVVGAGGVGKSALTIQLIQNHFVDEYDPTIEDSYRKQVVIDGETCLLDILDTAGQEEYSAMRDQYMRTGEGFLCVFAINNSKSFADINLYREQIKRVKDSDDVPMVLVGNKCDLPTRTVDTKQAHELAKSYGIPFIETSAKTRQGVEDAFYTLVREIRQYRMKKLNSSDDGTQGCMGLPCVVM
Sequence of GDP-bound KRAS wild-type protein (P01116 whole entry): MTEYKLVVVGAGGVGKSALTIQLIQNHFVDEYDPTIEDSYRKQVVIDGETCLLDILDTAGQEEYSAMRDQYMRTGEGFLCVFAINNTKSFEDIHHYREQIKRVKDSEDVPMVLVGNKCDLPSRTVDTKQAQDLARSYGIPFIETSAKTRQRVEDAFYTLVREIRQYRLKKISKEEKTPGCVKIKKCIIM

Kd [2]	Compound	NRAS/KRAS (ratio of KD value for NRAS to KD value for KRAS) [1]	HRAS/KRAS (ratio of KD value for HRAS to KD value for KRAS) [3]
0.18 nM	CCC[C@@H]1C[C@H]2C(=O)NC3(CCC3)C(=O)N(C)[C@@H](C3CCCC3)C(=O)N(C)[C@H](C(=O)N(C)C)CC(=O)N(C)[C@@H](CC(C)C)C(=O)N[C@@H]([C@@H](C)CC)C(=O)N(C)CC(=O)N(C)[C@H]3C/C=C\CCN(C3=O)[C@@H](Cc3ccc(C)cc3)C(=O)N(C)CC(=O)N[C@@H](CCc3cc(F)c(C(F)(F)F)c(F)c3)C(=O)N2C1 [PP2231]	A (a compound having 10 or more and less than 20 is denoted as A)	B (a compound having 3 or more and less than 10 is denoted as B)
0.19 nM	CCCOC[C@H]1C(=O)N[C@@H]([C@@H](C)CC)C(=O)N(C)CC(=O)N(C)[C@H]2C/C=C\CCN(C2=O)[C@@H](Cc2ccc(C)cc2)C(=O)N(C)CC(=O)N[C@@H](CCc2ccc(C(F)(F)F)c(Cl)c2)C(=O)N2C[C@H](C)C[C@H]2C(=O)NC2(CC(C)(C)C2)C(=O)N(C)[C@@H](C2CCCC2)C(=O)N(C)[C@H](C(=O)N(C)C)CC(=O)N1C [PP2234]	A (a compound having 10 or more and less than 20 is denoted as A)	A (a compound having 10 or more and less than 20 is denoted as A)
0.2 nM	CCC[C@@H]1C[C@H]2C(=O)NC3(CCC3)C(=O)N(C)[C@@H](C3CCCC3)C(=O)N(C)[C@H](C(=O)N(C)C)CC(=O)N(C)[C@@H](CCC)C(=O)N[C@@H]([C@@H](C)CC)C(=O)N(C)CC(=O)N(C)[C@H]3C/C=C\CCN(C3=O)[C@@H](Cc3ccc(C)cc3)C(=O)N(C)CC(=O)N[C@@H](CCc3ccc(C(F)(F)F)c(Cl)c3)C(=O)N2C1 [PP2238]	A (a compound having 10 or more and less than 20 is denoted as A)	A (a compound having 10 or more and less than 20 is denoted as A)
0.12 nM	CCO[C@@H]1C[C@H]2C(=O)NC3(CC(C)(C)C3)C(=O)N(C)[C@@H](C3CCCC3)C(=O)N(C)[C@H](C(=O)N(C)CC)CC(=O)N(C)[C@H]3CCCCCc4ccc(cc4)C[C@@H](C(=O)N(C)CC(=O)N[C@@H](CCc4ccc(C(F)(F)F)c(OC)c4)C(=O)N2C1)N1CC/C=C\C[C@@H](C1=O)N(C)C(=O)CN(C)C(=O)[C@H]([C@@H](C)CC)NC3=O [PP2259]	A (a compound having 10 or more and less than 20 is denoted as A)	B (a compound having 3 or more and less than 10 is denoted as B)
0.12 nM	CCO[C@@H]1C[C@H]2C(=O)NC3(CC(C)(C)C3)C(=O)N(C)[C@@H](C3CCCC3)C(=O)N(C)[C@H](C(=O)N(C)CC)CC(=O)N(C)[C@H]3CCCCCCc4ccc(cc4)C[C@@H](C(=O)N(C)CC(=O)N[C@@H](CCc4ccc(C(F)(F)F)c(OC)c4)C(=O)N2C1)N1CC/C=C\C[C@@H](C1=O)N(C)C(=O)CN(C)C(=O)[C@H]([C@@H](C)CC)NC3=O [PP2260, (1S,7S,11R,13S,19S,22S,26S,29S,35S,37Z)-19-cyclopentyl-11-ethoxy-N-ethyl-7-[2-[3-methoxy-4-(trifluoromethyl)phenyl]ethyl]-N,3,3′,3′,18,21,25,31,34-nonamethyl-29-[(1S)-1-methylpropyl]-2,5,8,14,17,20,24,27,30,33,55-undecaoxo-spiro[3,6,9,15,18,21,25,28,31,34,41-undecazapentacyclo[24.15.11.2^43,46.1^35,41.0^9,13]pentapentaconta-37,43(54),44,46(53)-tetraene-16,1′-cyclobutane]-22-carboxamide]	A (a compound having 10 or more and less than 20 is denoted as A)	A (a compound having 10 or more and less than 20 is denoted as A)
0.18 nM	CCO[C@@H]1C[C@H]2C(=O)NC3(CCC3)C(=O)N(C)[C@@H](C3CCCC3)C(=O)N(C)[C@H](C(=O)N(C)C)CC(=O)N(C)[C@H]3CCCCCc4ccc(cc4)C[C@@H](C(=O)N(C)CC(=O)N[C@@H](CCc4cc(F)c(C(F)(F)F)c(F)c4)C(=O)N2C1)N1CC/C=C\C[C@@H](C1=O)N(C)C(=O)CN(C)C(=O)[C@H]([C@@H](C)CC)NC3=O [PP2261]	A (a compound having 10 or more and less than 20 is denoted as A)	A (a compound having 10 or more and less than 20 is denoted as A)
0.24 nM	CCO[C@@H]1C[C@H]2C(=O)NC3(CCC3)C(=O)N(C)[C@@H](C3CCCC3)C(=O)N(C)[C@H](C(=O)N(C)C)CC(=O)N(C)[C@H]3CCCCCc4ccc(cc4)C[C@@H](C(=O)N(C)CC(=O)N[C@@H](CCc4ccc(C(F)(F)F)c(OC)c4)C(=O)N2C1)N1CC/C=C\C[C@@H](C1=O)N(C)C(=O)CN(C)C(=O)[C@H]([C@@H](C)CC)NC3=O [PP2262]	A (a compound having 10 or more and less than 20 is denoted as A)	B (a compound having 3 or more and less than 10 is denoted as B)
0.11 nM	CCO[C@@H]1C[C@H]2C(=O)NC3(CCC3)C(=O)N(C)[C@@H](C3CCCC3)C(=O)N(C)[C@H](C(=O)N(C)C)CC(=O)N(C)[C@H]3CCCCCCc4ccc(cc4)C[C@@H](C(=O)N(C)CC(=O)N[C@@H](CCc4ccc(C(F)(F)F)c(OC)c4)C(=O)N2C1)N1CC/C=C\C[C@@H](C1=O)N(C)C(=O)CN(C)C(=O)[C@H]([C@@H](C)CC)NC3=O [PP2264]	AA (a compound having 20 or more is denoted as AA)	A (a compound having 10 or more and less than 20 is denoted as A)
0.12 nM	CC[C@H](C)[C@@H]1NC(=O)[C@H](CC(C)C)N(C)C(=O)C[C@@H](C(=O)N(C)C)N(C)C(=O)[C@H](C2CCCC2)N(C)C(=O)C2(CCCC2)NC(=O)[C@@H]2C[C@H](C)CN2C(=O)[C@H](CCc2cc(F)c(C(F)(F)F)c(F)c2)NC(=O)CN(C)C(=O)[C@H](Cc2ccc(C(F)(F)F)cc2)N2CC/C=C\C[C@@H](C2=O)N(C)C(=O)CN(C)C1=O [PP2268]	A (a compound having 10 or more and less than 20 is denoted as A)	A (a compound having 10 or more and less than 20 is denoted as A)
0.38 nM	CCO[C@@H]1C[C@H]2C(=O)NC3(CCCC3)C(=O)N(C)[C@@H](C3CCCC3)C(=O)N(C)[C@H](C(=O)N(C)C)CC(=O)N(C)[C@@H](CC(C)C)C(=O)N[C@@H]([C@@H](C)CC)C(=O)N(C)CC(=O)N(C)[C@H]3C/C=C\CCN(C3=O)[C@@H](Cc3ccc(C(F)(F)F)cc3)C(=O)N(C)CC(=O)N[C@@H](CCc3cc(F)c(Cl)c(F)c3)C(=O)N2C1 [PP2269]	A (a compound having 10 or more and less than 20 is denoted as A)	A (a compound having 10 or more and less than 20 is denoted as A)
0.24 nM	CCC[C@H]1C(=O)N[C@@H]([C@@H](C)CC)C(=O)N(C)CC(=O)N(C)[C@H]2C/C=C\CCN(C2=O)[C@@H](Cc2ccc(C(F)(F)F)cc2)C(=O)N(C)CC(=O)N[C@@H](CCc2ccc(C(F)(F)F)c(Cl)c2)C(=O)N2C[C@@H](C)C[C@H]2C(=O)NC2(CC(C)(C)C2)C(=O)N(C)[C@@H](C2CCCC2)C(=O)N(C)[C@H](C(=O)N(C)C)CC(=O)N1C [PP2270]	B (a compound having 3 or more and less than 10 is denoted as B)	B (a compound having 3 or more and less than 10 is denoted as B)
0.29 nM	CC[C@@H]1C[C@H]2C(=O)NC3(CCCC3)C(=O)N(C)[C@@H](C3CCCC3)C(=O)N(C)[C@H](C(=O)N(C)CC)CC(=O)N(C)[C@@H](C)C(=O)N[C@@H]([C@@H](C)CC)C(=O)N(C)CC(=O)N(C)[C@H]3C/C=C\CCN(C3=O)[C@@H](Cc3ccc(C(F)(F)F)cc3)C(=O)N(C)CC(=O)N[C@@H](CCc3cc(F)c(C(F)(F)F)c(F)c3)C(=O)N2C1 [PP2271]	A (a compound having 10 or more and less than 20 is denoted as A)	A (a compound having 10 or more and less than 20 is denoted as A)
0.49 nM	CCC[C@@H]1C[C@H]2C(=O)NC3(CCCC3)C(=O)N(C)[C@@H](C3CCCC3)C(=O)N(C)[C@H](C(=O)N(C)CC)CC(=O)N(C)[C@@H](C)C(=O)N[C@@H]([C@@H](C)CC)C(=O)N(C)CC(=O)N(C)[C@H]3C/C=C\CCN(C3=O)[C@@H](Cc3ccc(C(F)(F)F)cc3)C(=O)N(C)CC(=O)N[C@@H](CCc3cc(F)c(C(F)(F)F)c(F)c3)C(=O)N2C1 [PP2272]	AA (a compound having 20 or more is denoted as AA)	A (a compound having 10 or more and less than 20 is denoted as A)
0.36 nM	CCC[C@@H]1C[C@H]2C(=O)NC3(CC(C)(C)C3)C(=O)N(C)[C@@H](C3CCCC3)C(=O)N(C)[C@H](C(=O)N(C)C)CC(=O)N(C)[C@@H](COC)C(=O)N[C@@H]([C@@H](C)CC)C(=O)N(C)CC(=O)N(C)[C@H]3C/C=C\CCN(C3=O)[C@@H](Cc3ccc(C(F)(F)F)cc3)C(=O)N(C)CC(=O)N[C@@H](CCc3ccc(C(F)(F)F)c(Cl)c3)C(=O)N2C1 [PP2275]	A (a compound having 10 or more and less than 20 is denoted as A)	A (a compound having 10 or more and less than 20 is denoted as A)
0.03 nM	CCC[C@H]1C(=O)N[C@@H]([C@@H](C)CC)C(=O)N(C)CC(=O)N(C)[C@H]2C/C=C\CCN(C2=O)[C@@H](Cc2ccc(C(F)(F)F)cc2)C(=O)N(C)CC(=O)N[C@@H](CCc2ccc(C(F)(F)F)c(OC)c2)C(=O)N2C[C@H](OCC)C[C@H]2C(=O)N(C)C2(CCC2)C(=O)N(C)[C@@H](C2CCCC2)C(=O)N(C)[C@H](C(=O)N(C)C)CC(=O)N1C [PP2312]	A (a compound having 10 or more and less than 20 is denoted as A)	B (a compound having 3 or more and less than 10 is denoted as B)
